Read-outs that look alike come from different tables or passages of the source.
Key:
[1] = system: CD69 expression on CD19+ B cells in human whole blood; assay: In Vitro whole blood CD69 Assay; format: cell-based; conditions: B-cell, read-out: In Vitro HWB CD69 Assay IC50 Score
Outline: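 Heparinized healthy-donor human whole blood was preincubated with compound (0.1% DMSO) for 30 min at 37 °C. Stimulation used 0.1 µg/mL anti-IgD-dextran or 20 µg/mL rabbit F(ab′)2 anti-IgD for 18–22 h at 37 °C. CD69 on gated CD19+ B cells was then measured by flow cytometry.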

BTK = target: T1, BTK (Homo sapiens, UniProt Q06187); assay: In Vitro BTK Kinase Assay: Btk-PolyGAT-LS Assay; format: biochemical; conditions: active BTK enzyme 0.25 nM, polyGAT 100 nM, 30 minutes, TRF readout; read-out: In Vitro BTK Kinase Assay IC50 Score
T1 construct: purchased Upstate 14-552
T1 sequence (Q06187 whole entry): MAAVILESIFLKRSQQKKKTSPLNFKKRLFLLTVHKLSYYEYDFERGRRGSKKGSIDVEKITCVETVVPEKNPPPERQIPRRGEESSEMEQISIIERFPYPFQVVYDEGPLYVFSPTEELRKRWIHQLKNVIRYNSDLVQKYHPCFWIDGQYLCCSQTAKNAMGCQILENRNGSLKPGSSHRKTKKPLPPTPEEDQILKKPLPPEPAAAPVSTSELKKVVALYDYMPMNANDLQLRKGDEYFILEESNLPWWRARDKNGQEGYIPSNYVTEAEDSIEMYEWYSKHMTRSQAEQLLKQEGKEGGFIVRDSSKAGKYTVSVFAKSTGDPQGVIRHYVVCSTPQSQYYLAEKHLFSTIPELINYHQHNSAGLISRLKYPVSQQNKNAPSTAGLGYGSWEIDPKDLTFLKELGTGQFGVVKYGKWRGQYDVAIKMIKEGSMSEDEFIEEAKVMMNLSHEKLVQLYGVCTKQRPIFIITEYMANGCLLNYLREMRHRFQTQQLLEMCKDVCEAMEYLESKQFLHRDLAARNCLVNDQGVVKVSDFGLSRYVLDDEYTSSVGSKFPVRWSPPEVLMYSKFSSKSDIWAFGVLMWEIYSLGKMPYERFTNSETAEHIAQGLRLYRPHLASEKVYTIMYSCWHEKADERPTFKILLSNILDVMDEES
Outline: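 IC50 values came from a four-parameter fit, with DMSO controls as 100% activity and EDTA controls as 0%. The signal was TR-FRET from a Tb-PY20 antibody binding fluorescein-polyGAT (100 nM) phosphorylated by 0.25 nM BTK. Kinase reactions used 10 μM ATP, a 4-fold compound titration, and ran 30 minutes before EDTA stop.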

[2] = human heparinized whole blood, anti-human IgD stimulation overnight, CD19+ B cells, flow cytometry

SMILES	IC50 ([1]; Homo sapiens) [µM]	IC50 (BTK) [µM]	IC50 [1, 2] [µM]
Cn1cc(-c2cn3nccc3c(-c3ccc(CNC(=O)c4nnc(C(C)(C)C)o4)c(F)c3)n2)cn1 [Example 6, 5-(tert-butyl)-N-(2-fluoro-4-(6-(1-methyl-1H-pyrazol-4-yl)pyrazolo[1,5-a]pyrazin-4-yl)benzyl)-1,3,4-oxadiazole-2-carboxamide]	< 1	< 0.001	–
Cn1cc(-c2cn3nccc3c(N3CCC(C)(CNC(=O)c4cn(C(C)(C)C)nn4)CC3)n2)cn1 [Example 44, 1-(tert-butyl)-N-((4-methyl-1-(6-(1-methyl-1H-pyrazol-4-yl)pyrazolo[1,5-a]pyrazin-4-yl)piperidin-4-yl)methyl)-1H-1,2,3-triazole-4-carboxamide]	–	0.01 to 1	1 to 10
Cn1cc(-c2cc3nccn3c(-c3ccc(CNC(=O)c4cn(C(C)(C)C)nn4)cc3)n2)cn1 [Example 59, 1-(tert-butyl)-N-(4-(7-(1-methyl-1H-pyrazol-4-yl)imidazo[1,2-c]pyrimidin-5-yl)benzyl)-1H-1,2,3-triazole-4-carboxamide]	–	0.001 to 0.01	< 1
COCCOc1cn2nccc2c(-c2ccc(CNC(=O)c3noc(C(C)(C)C)n3)c(C)c2)n1 [Example 132, 5-(tert-butyl)-N-(4-(6-(2-methoxyethoxy)pyrazolo[1,5-a]pyrazin-4-yl)-2-methylbenzyl)-1,2,4-oxadiazole-3-carboxamide]	–	0.001 to 0.01	1 to 10
Cn1cc(-c2cn3nccc3c(-c3ccc(CNC(=O)c4cn(C(C)(C)C)nn4)c(F)c3F)n2)cn1 [Example 93, 1-(tert-butyl)-N-(2,3-difluoro-4-(6-(1-methyl-1H-pyrazol-4-yl)pyrazolo[1,5-a]pyrazin-4-yl)benzyl)-1H-1,2,3-triazole-4-carboxamide]	–	< 0.001	< 1
Cc1cc(-c2cc(-c3cnn(C)c3)cn3nccc23)ccc1CNC(=O)c1noc(C2(C)CC2)n1 [Example 65, N-(2-methyl-4-(6-(1-methyl-1H-pyrazol-4-yl)pyrazolo[1,5-a]pyridin-4-yl)benzyl)-5-(1-methylcyclopropyl)-1,2,4-oxadiazole-3-carboxamide]	< 1	< 0.001	–
Cc1cc(-c2nccn3nccc23)ccc1CNC(=O)c1noc(C(C)(C)C)n1 [Example 85, 5-(tert-butyl)-N-(2-methyl-4-(pyrazolo[1,5-a]pyrazin-4-yl)benzyl)-1,2,4-oxadiazole-3-carboxamide]	–	0.001 to 0.01	1 to 10
Cn1cc(-c2cn3nccc3c(N3CC[C@H](CNC(=O)c4cn(C(C)(C)C)nn4)[C@H](F)C3)n2)cn1 [Example 152, 1-(tert-butyl)-N-((3-fluoro-1-(6-(1-methyl-1H-pyrazol-4-yl)pyrazolo[1,5-a]pyrazin-4-yl)piperidin-4-yl)methyl)-1H-1,2,3-triazole-4-carboxamide]	–	0.001 to 0.01	1 to 10
Cn1cc(-c2cn3nccc3c(-c3ccc(CNC(=O)c4cnn(C(C)(C)C)c4)c(C(F)F)c3)n2)cn1 [Example 107, 1-(tert-butyl)-N-(2-(difluoromethyl)-4-(6-(1-methyl-1H-pyrazol-4-yl)pyrazolo[1,5-a]pyrazin-4-yl)benzyl)-1H-pyrazole-4-carboxamide]	–	< 0.001	< 1
CC1CC(CNC(=O)c2noc(C3(C)CC3)n2)CCN1c1nc(-c2cnn(C)c2)cn2nccc12 (stereo not drawn) [Example 139, N-((2-methyl-1-(6-(1-methyl-1H-pyrazol-4-yl)pyrazolo[1,5-a]pyrazin-4-yl)piperidin-4-yl)methyl)-5-(1-methylcyclopropyl)-1,2,4-oxadiazole-3-carboxamide]	–	0.001 to 0.01	1 to 10
Cn1cc(-c2cn3nccc3c(-c3cc(F)c(CNC(=O)c4cnn(C(C)(C)C)n4)cc3F)n2)cn1 [Example 97, 2-(tert-butyl)-N-(2,5-difluoro-4-(6-(1-methyl-1H-pyrazol-4-yl)pyrazolo[1,5-a]pyrazin-4-yl)benzyl)-2H-1,2,3-triazole-4-carboxamide]	–	0.001 to 0.01	1 to 10
C[C@@H]1C(c2nc(C(=O)NCc3ccc(-c4nc(-c5cnn(C)c5)cc5nccn45)cc3)no2)[C@@H]1C (mixture of isomers) [Example 62, 5-(2,3-cis-dimethylcyclopropyl)-N-(4-(7-(1-methyl-1H-pyrazol-4-yl)imidazo[1,2-c]pyrimidin-5-yl)benzyl)-1,2,4-oxadiazole-3-carboxamide]	1 to 10	0.001 to 0.01	–
Cn1cc(-c2cn3nccc3c(-c3ccc(CNC(=O)c4noc(C5(C)CC5)n4)cc3)n2)cn1 [Example 5, N-(4-(6-(1-methyl-1H-pyrazol-4-yl)pyrazolo[1,5-a]pyrazin-4-yl)benzyl)-5-(1-methylcyclopropyl)-1,2,4-oxadiazole-3-carboxamide]	–	< 0.001	< 1
Cn1cc(-c2cn3nccc3c(N3CCC(C)(CNC(=O)c4nc(C(C)(C)C)no4)CC3)n2)cn1 [Example 47, 3-(tert-butyl)-N-((4-methyl-1-(6-(1-methyl-1H-pyrazol-4-yl)pyrazolo[1,5-a]pyrazin-4-yl)piperidin-4-yl)methyl)-1,2,4-oxadiazole-5-carboxamide]	–	0.001 to 0.01	1 to 10
Cn1cc(-c2cn3nccc3c(-c3ccc(CNC(=O)c4nnn(C(C)(C)C)n4)c(F)c3)n2)cn1 [Example 7, 2-(tert-butyl)-N-(2-fluoro-4-(6-(1-methyl-1H-pyrazol-4-yl)pyrazolo[1,5-a]pyrazin-4-yl)benzyl)-2H-tetrazole-5-carboxamide]	–	< 0.001	< 1
Cn1cc(-c2cc(-c3ccc(CNC(=O)c4noc(C5(C)CC5)n4)cc3)n3cnnc3c2)cn1 [Example 76, N-(4-(7-(1-methyl-1H-pyrazol-4-yl)-[1,2,4]triazolo[4,3-a]pyridin-5-yl)benzyl)-5-(1-methylcyclopropyl)-1,2,4-oxadiazole-3-carboxamide]	–	0.01 to 1	1 to 10
Cn1cc(-c2cn3nccc3c(-c3ccc(CNC(=O)c4coc(C(C)(C)C)n4)c(C(F)F)c3)n2)cn1 [Example 101, 2-(tert-butyl)-N-(2-(difluoromethyl)-4-(6-(1-methyl-1H-pyrazol-4-yl)pyrazolo[1,5-a]pyrazin-4-yl)benzyl)oxazole-4-carboxamide]	–	0.001 to 0.01	1 to 10
Cn1cc(-c2cn3nccc3c(-c3ccc(CNC(=O)c4cnn(C(C)(C)C)c4)c(F)c3)n2)cn1 [Example 10, 1-(tert-butyl)-N-(2-fluoro-4-(6-(1-methyl-1H-pyrazol-4-yl)pyrazolo[1,5-a]pyrazin-4-yl)benzyl)-1H-pyrazole-4-carboxamide]	–	< 0.001	< 1
Cn1cc(-c2cn3nccc3c(-c3ccc(CNC(=O)c4cn(C(C)(C)C)nn4)c(C(F)F)c3)n2)cn1 [Example 105, 1-(tert-butyl)-N-(2-(difluoromethyl)-4-(6-(1-methyl-1H-pyrazol-4-yl)pyrazolo[1,5-a]pyrazin-4-yl)benzyl)-1H-1,2,3-triazole-4-carboxamide]	–	< 0.001	< 1
Cn1cc(-c2cn3nccc3c(-c3ccc(CNC(=O)c4cnn(C(C)(C)C)c4)cc3)n2)cn1 [Example 2, 1-(tert-butyl)-N-(4-(6-(1-methyl-1H-pyrazol-4-yl)pyrazolo[1,5-a]pyrazin-4-yl)benzyl)-1H-pyrazole-4-carboxamide]	–	0.001 to 0.01	< 1
Cn1cc(-c2cn3nccc3c(N3CC[C@H](CNC(=O)c4noc(C(C)(C)C)n4)[C@H](F)C3)n2)cn1 (single isomer, unassigned) [Example 155]	–	0.001 to 0.01	1 to 10
